Laboratory results as given in article PMC11881452, “Inactivation of NLRP3 inflammasome by dephosphorylation at Serine 658 alleviates glial inflammation in the mouse model of Parkinson’s disease” (Molecular Neurodegeneration, 2025).

Key:
[1] = molecular target: T1, NLRP3 (Homo sapiens, UniProt Q96P20); test: SPR, NLRP3 immobilized on CM5 chip, […] binding model; set-up: Recombinant human NLRP3 protein (CUSBIO, #CSB-EP822275HU3)
Target sequence in this assay (Q96P20 whole entry): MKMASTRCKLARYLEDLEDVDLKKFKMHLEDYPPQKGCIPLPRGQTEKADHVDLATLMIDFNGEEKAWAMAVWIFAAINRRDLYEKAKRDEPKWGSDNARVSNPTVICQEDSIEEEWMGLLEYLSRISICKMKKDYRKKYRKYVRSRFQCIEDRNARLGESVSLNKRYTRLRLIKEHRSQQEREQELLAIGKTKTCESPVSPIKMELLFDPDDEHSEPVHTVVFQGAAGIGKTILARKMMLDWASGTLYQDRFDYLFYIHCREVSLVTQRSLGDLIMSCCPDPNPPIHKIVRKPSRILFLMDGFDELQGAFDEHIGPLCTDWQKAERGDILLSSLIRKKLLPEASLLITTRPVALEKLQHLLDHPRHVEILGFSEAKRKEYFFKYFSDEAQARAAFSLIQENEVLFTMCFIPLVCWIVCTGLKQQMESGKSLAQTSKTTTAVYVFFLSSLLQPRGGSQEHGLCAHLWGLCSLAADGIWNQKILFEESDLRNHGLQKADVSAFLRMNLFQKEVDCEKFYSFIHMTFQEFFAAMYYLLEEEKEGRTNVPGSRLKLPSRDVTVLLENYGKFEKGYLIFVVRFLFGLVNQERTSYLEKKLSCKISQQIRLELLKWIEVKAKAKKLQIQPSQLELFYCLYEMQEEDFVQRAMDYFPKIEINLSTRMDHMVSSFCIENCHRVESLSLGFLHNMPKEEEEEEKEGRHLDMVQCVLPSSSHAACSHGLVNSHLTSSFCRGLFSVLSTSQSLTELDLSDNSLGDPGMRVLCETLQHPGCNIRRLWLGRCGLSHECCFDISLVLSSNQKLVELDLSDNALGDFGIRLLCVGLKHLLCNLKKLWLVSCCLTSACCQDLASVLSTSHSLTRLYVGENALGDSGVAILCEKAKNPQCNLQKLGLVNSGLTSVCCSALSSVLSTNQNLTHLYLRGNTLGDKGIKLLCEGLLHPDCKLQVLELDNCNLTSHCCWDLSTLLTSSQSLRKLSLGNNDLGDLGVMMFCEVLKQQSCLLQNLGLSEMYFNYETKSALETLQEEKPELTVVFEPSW

[2] = molecular target: T1, NLRP3; test: streptavidin pull-down from HEK-293T lysates, Western blot; format: cell-based; set-up: Flag-NLRP3; Flag-NLRP3 (NACHT: 220-536aa); Flag-NLRP3 (LRR: 742-991aa)
Target sequence in this assay (Q96P20 220-536): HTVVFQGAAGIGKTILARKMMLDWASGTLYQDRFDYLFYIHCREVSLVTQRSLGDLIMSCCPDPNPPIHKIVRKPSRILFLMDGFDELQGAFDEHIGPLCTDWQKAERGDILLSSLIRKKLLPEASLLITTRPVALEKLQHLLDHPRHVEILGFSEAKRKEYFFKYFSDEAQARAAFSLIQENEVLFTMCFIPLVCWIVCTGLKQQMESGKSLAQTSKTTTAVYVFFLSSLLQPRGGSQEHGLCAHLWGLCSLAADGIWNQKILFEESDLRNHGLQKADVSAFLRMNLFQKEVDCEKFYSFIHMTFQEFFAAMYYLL

With `O=c1c2ccccc2nc2n1CCc1c-2[nH]c2ccccc12` [S2349] the Kd [1] was 146 µM.

Compound `O=c1ccc2cc3ccoc3cc2o1` [S4737, Psoralen] has a Kd [1] of 209 µM.

For `O=C1N[C@H]2[C@H](CS[C@H]2CCCCC(=O)Oc2c3occc3cc3ccc(=O)oc23)N1` [Biotinylated-Psoralen], the “streptavidin pull-down from HEK-293T lysates, Western blot” value [2] was “Streptavidin pull-down assays showed that Bio-Pso specifically bound to the NACHT and LRR domains, but not the PYD domain”.
